Drawing on ChEMBL document CHEMBL3399981, “Novel neurotrophic phenylbutenoids from Indonesian ginger Bangle, Zingiber purpureum” (Bioorg Med Chem Lett, 2015), this text covers Activity and inhibition for 4 compounds.

The source made the active and inactive calls. The rule behind the calls is not given here.

For series [1], the system named is PC-12. Briefly: Neuritogenic activity in rat PC12 cells assessed as neurite outgrowth at 1 to 30 uM after 4 days by phase-contrast microscopy in presence of 2 ng/ml NGF. The class given is functional, cell-based.
In series [2] the target is Amyloid-beta precursor protein (Homo sapiens) (UniProt P05067). In words: Inhibition of beta-sheet formation in amyloid beta-42 (unknown origin) assessed as decrease in ThT fluorescence at 50 uM after 1 hr by spectrophotometric plate reader.
Chain of Amyloid-beta precursor protein (Homo sapiens) (P05067 whole entry): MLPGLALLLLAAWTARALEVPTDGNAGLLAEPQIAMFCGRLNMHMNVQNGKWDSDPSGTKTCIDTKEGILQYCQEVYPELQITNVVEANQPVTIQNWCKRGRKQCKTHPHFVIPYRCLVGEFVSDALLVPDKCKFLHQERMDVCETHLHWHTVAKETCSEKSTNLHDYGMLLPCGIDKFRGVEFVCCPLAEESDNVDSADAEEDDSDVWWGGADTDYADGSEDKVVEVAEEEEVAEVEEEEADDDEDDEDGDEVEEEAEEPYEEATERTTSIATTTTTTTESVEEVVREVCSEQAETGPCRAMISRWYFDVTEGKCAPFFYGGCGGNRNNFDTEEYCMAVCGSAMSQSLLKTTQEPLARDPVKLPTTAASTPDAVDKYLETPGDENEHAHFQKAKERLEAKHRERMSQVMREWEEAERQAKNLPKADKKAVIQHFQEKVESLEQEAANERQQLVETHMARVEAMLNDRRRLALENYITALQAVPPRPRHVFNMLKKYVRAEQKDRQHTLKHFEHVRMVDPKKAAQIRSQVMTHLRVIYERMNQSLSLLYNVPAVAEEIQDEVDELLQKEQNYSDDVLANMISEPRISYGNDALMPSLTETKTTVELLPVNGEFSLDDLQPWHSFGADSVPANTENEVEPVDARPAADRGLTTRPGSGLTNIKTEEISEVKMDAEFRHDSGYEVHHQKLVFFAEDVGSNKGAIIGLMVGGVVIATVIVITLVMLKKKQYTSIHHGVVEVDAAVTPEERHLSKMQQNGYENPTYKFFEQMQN
The test system of series [3] is PC-12. In words: Neuritogenic activity in rat PC12 cells assessed as neurite outgrowth at 1 uM after 4 days by phase-contrast microscopy in presence of 2 ng/ml NGF. It is filed as functional, cell-based.
Series [4] deals with Amyloid-beta precursor protein (Homo sapiens) (UniProt P05067). Briefly: Inhibition of beta-sheet formation in amyloid beta-42 (unknown origin) assessed as decrease in ThT fluorescence after 1 hr by spectrophotometric plate reader.
A short description of series [5]: Toxicity in rat PC12 cells at > 10 uM after 4 days by phase-contrast microscopy in presence of 2 ng/ml NGF. It is filed as cell-based. The settings on record: pc-12, 96 h.
Series [6] deals with PC-12. In words: Neuritogenic activity in rat PC12 cells assessed as neurite outgrowth after 4 days by phase-contrast microscopy in presence of 2 ng/ml NGF. It is filed as functional, cell-based.
The subject of series [7] is PC-12. In words: Neuritogenic activity in rat PC12 cells assessed as neurite outgrowth at 10 uM after 4 days by phase-contrast microscopy in presence of 2 ng/ml NGF. The class given is functional, cell-based.
Series [8] can be described thus: Toxicity in rat PC12 cells at > 30 uM after 4 days by phase-contrast microscopy in presence of 2 ng/ml NGF. The class given is cell-based. As to conditions: pc-12, 96 h.
The test system of series [9] is PC-12. In words: Neuritogenic activity in rat PC12 cells assessed as neurite outgrowth at 30 uM after 4 days by phase-contrast microscopy. It is filed as functional, cell-based.

On to `COc1ccc([C@H]2[C@H](CCO)CC=C[C@@H]2c2ccc(OC)c(OC)c2)cc1OC`, for which the result in [1] was inactive.

What is called inhibition is the percentage by which the read-out fell short of the control. For the compound `COc1cc(/C=C/C(=O)C2(C(=O)/C=C/c3ccc(O)c(OC)c3)CCC=C[C@@H]2c2ccc(OC)c(OC)c2)ccc1O`, the inhibition in series [2] was 18.9%; in series [4], “Dose-dependent effect”. The outcome in series [3] was Active. Besides, the values for the Activity result in [5] and in [6] were “Toxic” and “Dose-dependent effect”, respectively.

Regarding `COc1cc(/C=C/C(=O)C2(C(=O)/C=C/c3ccc(O)c(OC)c3)CCC=C[C@@H]2c2cc(OC)c(OC)cc2OC)ccc1O`, the result in series [3] and in series [7] was Active. In addition, the Activity result is “Dose-dependent effect” in series [6] and “Toxic” in series [8].

On to `COc1ccc(/C=C/[C@H]2CCC=C[C@@H]2c2ccc(OC)c(OC)c2)cc1OC`, for which the inhibition in [2] was 59.6%; in [4] it was “Dose-dependent effect”. Further, the result in [9] was Active.
